ChEMBL document CHEMBL1759899, “Design and synthesis of several small-size HTLV-I protease inhibitors with different hydrophilicity profiles” (Bioorg Med Chem Lett, 2011)
Numbered stars: 1 amine (or outer) side, 2 acyl side, 3 side chain; on linkers, the order of the positions; unused ones are H or OH. Square brackets hold non-standard residues; d marks the D form. Peptide text beside a SMILES is read from it. * marks the point of attachment. X1 = O=C([C@@H](O)[C@H](Cc1ccccc1)N[*:1])[*:2]; Thz(5,5-Me2) = CC1(C)SCN[C@@H]1C(=O)O; Phg = N[C@H](C(=O)O)c1ccccc1; Tle = CC(C)(C)[C@H](N)C(=O)O; Dap = NC[C@H](N)C(=O)O; NHCH2tBu = CC(C)(C)CN*

Columns and labels:
[1] = molecular target: Protease (Human immunodeficiency virus 1) (UniProt Q9YQ12); assay: Inhibition of HIV1 recombinant protease at 50 nM
[2] = test system: T1, Protease (Human T-cell leukemia virus type I), Q82134 [L40I]; assay: Inhibition of HTLV-1 recombinant protease L40I mutant at 50 nM
T1 sequence (whole entry): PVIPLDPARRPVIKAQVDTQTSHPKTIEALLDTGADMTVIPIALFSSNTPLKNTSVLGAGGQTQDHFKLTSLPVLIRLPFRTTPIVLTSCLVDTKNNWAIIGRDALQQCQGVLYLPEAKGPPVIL

[3] = molecular target: Protease (Human T-cell leukemia virus type I, UniProt Q82134, L40I); assay: Inhibition of HTLV-1 recombinant protease L40I mutant

Protease (Human immunodeficiency virus 1), sequence (Q9YQ12 as listed by the source): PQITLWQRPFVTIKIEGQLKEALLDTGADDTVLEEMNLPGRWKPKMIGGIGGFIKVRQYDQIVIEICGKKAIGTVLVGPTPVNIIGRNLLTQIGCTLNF

SMILES | inhibition [1] [%] | inhibition [2] [%] | IC50 [3] [nM]
CCCC(=O)N[C@H](C(=O)N[C@H](C(=O)N[C@@H](Cc1ccccc1)[C@H](O)C(=O)N1CSC(C)(C)[C@H]1C(=O)NCC(C)(C)C)C(C)(C)C)c1ccccc1 | 99 |  | 
CC(C)(C)CNC(=O)[C@H]1N(C(=O)[C@@H](O)[C@H](Cc2ccccc2)NC(=O)[C@@H](NC(=O)[C@@H](NC(=O)[C@@H](N)CN)c2ccccc2)C(C)(C)C)CSC1(C)C (H-[Dap][Phg][Tle][X1][Thz(5,5-Me2)]-NHCH2tBu) | 72 | 8 | 
CC(C)(C)CNC(=O)[C@H]1N(C(=O)[C@@H](O)[C@H](Cc2ccccc2)NC(=O)[C@@H](NC(=O)[C@@H](NC(=O)CN)c2ccccc2)C(C)(C)C)CSC1(C)C (H-G[Phg][Tle][X1][Thz(5,5-Me2)]-NHCH2tBu) | 94 |  | 41.1
CC(C)(C)CNC(=O)[C@H]1N(C(=O)[C@@H](O)[C@H](Cc2ccccc2)NC(=O)[C@@H](NC(=O)[C@@H](NC(=O)CCN)c2ccccc2)C(C)(C)C)CSC1(C)C | 99 | 90 | 5.7
CC(C)(C)CNC(=O)[C@H]1N(C(=O)[C@@H](O)[C@H](Cc2ccccc2)NC(=O)[C@@H](NC(=O)[C@@H](NCc2ccccc2)c2ccccc2)C(C)(C)C)CSC1(C)C | 92 | 44 | 
CN[C@H](C(=O)N[C@H](C(=O)N[C@@H](Cc1ccccc1)[C@H](O)C(=O)N1CSC(C)(C)[C@H]1C(=O)NCC(C)(C)C)C(C)(C)C)c1ccccc1 | > 99 | 38 | 31.4
COC(=O)N[C@H](C(=O)N[C@H](C(=O)N[C@@H](Cc1ccccc1)[C@H](O)C(=O)N1CSC(C)(C)[C@H]1C(=O)NCC(C)(C)O)C(C)(C)C)c1ccccc1 | 99 |  | 39.1
CC(C)(C)CNC(=O)[C@H]1N(C(=O)[C@@H](O)[C@H](Cc2ccccc2)NC(=O)[C@@H](NC(=O)[C@@H](NC(=O)C(C)(CO)CO)c2ccccc2)C(C)(C)C)CSC1(C)C | 86 | 18 | 
COC(=O)N[C@H](C(=O)N[C@H](C(=O)N[C@@H](Cc1ccccc1)[C@H](O)C(=O)N1CSC(C)(C)[C@H]1C(=O)NCC(C)(C)C)C(C)(C)C)c1ccccc1 | 99 |  | 7.2
CC(C)(C)CNC(=O)[C@H]1N(C(=O)[C@@H](O)[C@H](Cc2ccccc2)NC(=O)[C@@H](NC(=O)[C@@H](NC(=O)CCCN)c2ccccc2)C(C)(C)C)CSC1(C)C | 99 |  | 25.4
COC(=O)N[C@H](C(=O)N[C@H](C(=O)N[C@@H](Cc1ccccc1)[C@H](O)C(=O)N1CSC(C)(C)[C@H]1C(=O)NNC(C)(C)C)C(C)(C)C)c1ccccc1 | 99 |  | 10.4
CN(C)[C@H](C(=O)N[C@H](C(=O)N[C@@H](Cc1ccccc1)[C@H](O)C(=O)N1CSC(C)(C)[C@H]1C(=O)NCC(C)(C)C)C(C)(C)C)c1ccccc1 | 99 | 38 | 
CCN(CC)[C@H](C(=O)N[C@H](C(=O)N[C@@H](Cc1ccccc1)[C@H](O)C(=O)N1CSC(C)(C)[C@H]1C(=O)NCC(C)(C)C)C(C)(C)C)c1ccccc1 | 98 | 39 | 
CC(C)(C)CNC(=O)[C@H]1N(C(=O)[C@@H](O)[C@H](Cc2ccccc2)NC(=O)[C@@H](NC(=O)[C@@H](N)c2ccccc2)C(C)(C)C)CSC1(C)C |  | 38 | 
CCN[C@H](C(=O)N[C@H](C(=O)N[C@@H](Cc1ccccc1)[C@H](O)C(=O)N1CSC(C)(C)[C@H]1C(=O)NCC(C)(C)C)C(C)(C)C)c1ccccc1 | 99 | 38 | 25.5
